Assays:
Experiment in all cases: Cancer cell growth inhibition (CellTiter-Glo)
Format in all cases: cell-based
CFPAC-1 = details: Homo sapiens; CFPAC-1, pancreatic ductal adenocarcinoma; 144 hours
Method: (§1) Cells were plated into 384-well plates at a pre-specified density in fetal bovine serum-containing media. Cells were treated with compound or vehicle (DMSO) 24 hrs later, and a day zero plate was collected for analysis. Test compound plates were incubated continuously for 144 hours before cells and cell growth was assessed using a luminescent cell viability assay (CellTiter-Glo, Promega). The GI50 was determined by correcting for the cell count at time zero (time of treatment) and plotting data as percent growth relative to vehicle-treated cells.

COLO 680N = details: Homo sapiens, esophageal squamous cell carcinoma, 144 hours
Method: as §1

EBC-1 = details: Homo sapiens; EBC-1, squamous cell lung carcinoma; 144 hours
Method: as §1

HCC1954 = details: Homo sapiens; HCC1954, ductal breast carcinoma; 144 hours
Method: as §1

HCC827 = details: Homo sapiens; HCC827, lung adenocarcinoma; 144 hours
Method: as §1

KALS-1 = details: Homo sapiens; KALS-1, glioblastoma; 144 hours
Method: as §1

KMRC-3 = details: KMRC-3, clear cell renal carcinoma; 144 hours
Method: as §1

NCI-H1437 = details: Homo sapiens; NCI-H1437, lung adenocarcinoma; 144 hours
Method: as §1

NCI-H1648 = details: Homo sapiens; NCI-H1648, lung adenocarcinoma; 144 hours
Method: as §1

NCI-H1930 = details: Homo sapiens; NCI-H1930, small cell lung carcinoma; 144 hours
Method: as §1

NCI-H1944 = details: Homo sapiens; NCI-H1944, lung adenocarcinoma; 144 hours
Method: as §1

NCI-H1963 = details: Homo sapiens; NCI-H1963, small cell lung carcinoma; 144 hours
Method: as §1

NCI-H2009 = details: Homo sapiens; NCI-H2009, lung adenocarcinoma; 144 hours
Method: as §1

NCI-H2066 = details: NCI-H2066, squamous cell lung carcinoma; 144 hours
Method: as §1

NCI-H2087 = details: Homo sapiens; NCI-H2087, lung adenocarcinoma; 144 hours
Method: as §1

NCI-H2291 = details: Homo sapiens; NCI-H2291, lung adenocarcinoma; 144 hours
Method: as §1

NUGC-3 = details: Homo sapiens; NUGC-3, gastric adenocarcinoma; 144 hours
Method: as §1

Panc 03.27 = details: Homo sapiens, PANC-03-27; Panc 03.27, pancreatic adenocarcinoma; 144 hours
Method: as §1

SCC-25 = details: Homo sapiens; SCC-25, tongue squamous cell carcinoma; 144 hours
Method: as §1

SCaBER = details: Homo sapiens, bladder squamous cell carcinoma, 144 hours
Method: as §1

SK-MEL-2 = details: Homo sapiens; SK-MEL-2, malignant melanoma; 144 hours
Method: as §1

SK-MES-1 = details: Homo sapiens; SK-MES-1, squamous cell lung carcinoma; 144 hours
Method: as §1

T84 = details: Homo sapiens; T84, colon adenocarcinoma; 144 hours
Method: as §1

TE-11 = details: Homo sapiens; TE-11, esophageal squamous cell carcinoma; 144 hours
Method: as §1

- GI50 (CFPAC-1): 0.1 to 1 µM
- GI50 (COLO 680N): ≥ 1 µM
- GI50 (EBC-1): < 0.1 µM
- GI50 (HCC1954): ≥ 1 µM
- GI50 (HCC827): < 0.1 µM
- GI50 (KALS-1): ≥ 1 µM
- GI50 (KMRC-3): ≥ 1 µM
- GI50 (NCI-H1437): ≥ 1 µM
- GI50 (NCI-H1648): ≥ 1 µM
- GI50 (NCI-H1930): ≥ 1 µM
- GI50 (NCI-H1944): ≥ 1 µM
- GI50 (NCI-H1963): ≥ 1 µM
- GI50 (NCI-H2009): ≥ 1 µM
- GI50 (NCI-H2066): ≥ 1 µM
- GI50 (NCI-H2087): ≥ 1 µM
- GI50 (NCI-H2291): ≥ 1 µM
- GI50 (NUGC-3): ≥ 1 µM
- GI50 (Panc 03.27): < 0.1 µM
- GI50 (SCC-25): < 0.1 µM
- GI50 (SCaBER): ≥ 1 µM
- GI50 (SK-MEL-2): ≥ 1 µM
- GI50 (SK-MES-1): ≥ 1 µM
- GI50 (T84): ≥ 1 µM
- GI50 (TE-11): ≥ 1 µM
SMILES: C[C@@H](COCCC(=O)N1CCN(c2ncc(C(F)(F)F)cn2)CC1)Nc1cn[nH]c(=O)c1C(F)(F)F [Compound 1, 5-[[(2S)-1-(3-oxo-3-[4-[5-(trifluoromethyl)pyrimidin-2-yl]piperazin-1-yl]propoxy)propan-2-yl]amino]-4-(trifluoromethyl)-2,3-dihydropyridazin-3-one]

Source: US12371421B2, “Solid forms of a PARP7 inhibitor” (Ribon Therapeutics, Inc., priority 2019, dated 2025)
